Test system: restraint stress-loaded ddY male mice
Assay: Test on inhibition of reduction in blood testosterone concentration (restraint stress-loaded mice)
Assay type: in vivo
Conditions: tested likewise, dose of the components not given
Description: The Codonopsis lanceolata extract obtained in Example 1 was used to investigate inhibitory effect on reduction in blood testosterone concentration caused by aging and stress according to the following procedures: seven-month-old ddY male mice (10 mice per group) were orally given 1 g/kg of the test substance once a day over 2 weeks. On the last administration day, the mice were loaded with restraint stress after 1 hour of test substance administration. The restraint stress loading was performed by wrapping soft wire nets around the mouse bodies and allowing the mice to abstain from food and drink for 16 hours (17:00 to 9:00). Immediately after the termination of the loading, their blood testosterone concentrations were measured. A significant difference test used was the Student's t-test.

Compound | inhibitory effect on reduction in blood testosterone concentration (isolated components)
CC1OC(OC2C(OC(=O)[C@]34CCC(C)(C)C[C@@]3(C)C3=CCC5[C@@]6(C)CC[C@H](OC7OC(C(=O)O)C(O)C(O)C7O)C(C)(C)C6CC[C@@]5(C)[C@]3(C)C[C@H]4O)OCC(O)C2O)C(O)C(O)C1OC1OCC(O)C(OC2OCC(O)C(O)C2O)C1O (some centres unmarked) [lancemaside-A] | the inhibitory effect was also observed
tangshenoside I | the inhibitory effect was also observed

Source: patent US20080274213A1, “Drug for Ameliorating Male Climacteric Disorders” (WAKUNAGA PHARMACEUTICAL CO., LTD., priority 2004, published 2008)
